Assay results as given in US20170334899A1, “AMINO-SUBSTITUTED ISOTHIAZOLES” (Bayer Pharma Aktiengesellschaft, priority 2014, published 2017).
Where “and” joins values, the source holds several entries; their conditions need not be identical. Equal values may be shown once.

Biological target: T1, human kinase Mps-1 (Homo sapiens, UniProt P33981)
T1 construct: N-terminally GST-tagged human full length recombinant Mps-1 kinase; GST (N); purchased Invitrogen, Karslruhe, Germany PV4071
T1 sequence (P33981 1-857): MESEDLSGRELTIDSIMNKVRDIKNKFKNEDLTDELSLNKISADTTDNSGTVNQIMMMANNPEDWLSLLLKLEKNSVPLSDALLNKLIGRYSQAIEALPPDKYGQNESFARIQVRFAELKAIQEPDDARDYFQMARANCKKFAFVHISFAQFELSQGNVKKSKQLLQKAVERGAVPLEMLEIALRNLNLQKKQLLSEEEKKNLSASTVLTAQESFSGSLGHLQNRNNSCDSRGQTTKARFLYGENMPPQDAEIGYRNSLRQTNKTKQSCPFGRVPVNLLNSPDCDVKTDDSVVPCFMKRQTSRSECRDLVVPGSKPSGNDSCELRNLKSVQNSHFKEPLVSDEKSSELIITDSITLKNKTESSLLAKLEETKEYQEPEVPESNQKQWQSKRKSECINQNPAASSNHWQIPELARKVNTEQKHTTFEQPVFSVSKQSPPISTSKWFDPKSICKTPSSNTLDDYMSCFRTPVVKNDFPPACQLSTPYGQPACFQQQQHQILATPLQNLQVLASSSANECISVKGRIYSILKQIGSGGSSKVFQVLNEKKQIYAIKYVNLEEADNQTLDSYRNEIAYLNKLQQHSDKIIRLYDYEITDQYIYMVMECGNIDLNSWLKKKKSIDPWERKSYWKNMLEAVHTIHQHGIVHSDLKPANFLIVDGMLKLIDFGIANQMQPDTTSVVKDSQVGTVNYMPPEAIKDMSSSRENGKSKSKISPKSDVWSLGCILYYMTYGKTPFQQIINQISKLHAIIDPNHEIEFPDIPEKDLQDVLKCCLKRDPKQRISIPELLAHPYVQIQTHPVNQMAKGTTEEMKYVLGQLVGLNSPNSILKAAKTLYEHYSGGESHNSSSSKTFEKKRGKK
Experiment: Mps-1 kinase assay (TR-FRET)
Format: biochemical
Conditions: Mps-1 TR-FRET kinase assay; avg; read-out: Mps1 avg (IC50 [mol/l])
Procedure, shortened: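 GST-tagged full-length recombinant human Mps-1 (~0.5 nM) pre-incubated 15 min with compound, then reacted 60 min at 22 °C with 10 μM ATP and 1 μM biotinylated peptide in Hepes pH 7.7 buffer. EDTA-stopped; TR-FRET (Eu anti-phospho-Ser/Thr to SA-XLent) 665/620 nm ratio normalised to no-inhibitor and no-enzyme controls.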

Row | IC50 | SMILES
1 | ≥ 20 µM | Cc1nsc(Nc2cnc(C(F)(F)F)cn2)c1C(=O)Nc1ccc(OCCNC(=O)C(F)(F)F)nc1 [Example 425, 3-Methyl-N-(6-{2-[(trifluoroacetyl)amino]ethoxy}pyridin-3-yl)-5-{[5-(trifluoro-methyl)pyrazin-2-yl]amino}-1,2-thiazole-4-carboxamide]
2 | ≥ 20 µM | Cc1nsc(Nc2cnc3ccccc3n2)c1C(=O)Nc1cccc(C(=O)OC(C)(C)C)c1 [Example 49, tert-Butyl 3-({[3-methyl-5-(quinoxalin-2-ylamino)-1,2-thiazol-4-yl]carbonyl}amino)-benzoate]
3 | ≥ 20 µM | Cc1nsc(Nc2ccc(C#N)cn2)c1C(=O)Nc1ccc(OC2CCCN(CC(F)F)C2)nc1 (centres unmarked) [Example 39, 5-[(5-Cyanopyridin-2-yl)amino]-N-(6-{[1-(2,2-difluoroethyl)piperidin-3-yl]oxy}-pyridin-3-yl)-3-methyl-1,2-thiazole-4-carboxamide]
4 | ≥ 20 µM | Cc1nsc(Nc2cnc3ccccc3n2)c1C(=O)Nc1cccc(C(=O)NC(C)(C)C)c1 [Example 53, N-[3-(tert-Butylcarbamoyl)-phenyl]-3-methyl-5-(quinoxalin-2-ylamino)-1,2-thiazole-4-carboxamide]
5 | > 20 µM | Cc1nsc(Nc2cnc3ccccc3n2)c1C(=O)Nc1cccc(NC(=O)C(F)(F)F)c1 [Example 432, 3-Methyl-5-(quinoxalin-2-ylamino)-N-{3-[(trifluoroacetyl)amino]phenyl}-1,2-thiazole-4-carboxamide]
6 | ≥ 20 µM | Cc1nsc(Nc2ccc(C#N)cn2)c1C(=O)Nc1ccc(OC2CCCN(CC(F)(F)F)C2)nc1 (centres unmarked) [Example 40, 5-[(5-Cyanopyridin-2-yl)amino]-3-methyl-N-(6-{[1-(2,2,2-trifluoroethyl)piperidin-3-yl]oxy}pyridin-3-yl)-1,2-thiazole-4-carboxamide]
7 | 18 µM | Cc1nsc(Nc2cnc3ccccc3n2)c1C(=O)Nc1cccc(C(=O)N2CCOCC2)c1 [Example 52, 3-Methyl-N-[3-(morpholin-4-ylcarbonyl)phenyl]-5-(quinoxalin-2-ylamino)-1,2-thiazole-4-carboxamide]
8 | ≥ 20 µM | COCCOc1ccc(NC(=O)c2c(C)nsc2Nc2nc3c(C(F)(F)F)cccc3s2)cc1F [Example 1, N-[3-Fluoro-4-(2-methoxyethoxy)phenyl]-3-methyl-5-{[4-(trifluoromethyl)-1,3-benzothiazol-2-yl]amino}-1,2-thiazole-4-carboxamide]
9 | ≥ 20 µM | Cc1nsc(Nc2cc(C#N)ccn2)c1C(=O)Nc1ccc(OCCCN)nc1 [Example 44, N-[6-(3-Aminopropoxy)pyridin-3-yl]-5-[(4-cyanopyridin-2-yl)amino]-3-methyl-1,2-thiazole-4-carboxamide]
10 | ≥ 20 µM | Cc1nsc(Nc2ccc(C#N)cn2)c1C(=O)Nc1ccc(OC2CCCN(CCF)C2)nc1 (centres unmarked) [Example 38, 5-[(5-Cyanopyridin-2-yl)amino]-N-(6-{[1-(2-fluoroethyl)piperidin-3-yl]oxy}pyridin-3-yl)-3-methyl-1,2-thiazole-4-carboxamide]
11 | ≥ 20 µM | COCCOc1ccc(NC(=O)c2c(C)nsc2Nc2nc3c(C(F)(F)F)cccc3s2)cn1 [Example 3, N-[6-(2-Methoxyethoxy)pyridin-3-yl]-3-methyl-5-{[4-(trifluoromethyl)-1,3-benzo-thiazol-2-yl]amino}-1,2-thiazole-4-carboxamide]
12 | > 20 µM | Cc1nsc(Nc2cnc(C(F)(F)F)cn2)c1C(=O)Nc1ccc(OCCCNC(=O)C(F)(F)F)nc1 [Example 428, 3-Methyl-N-(6-{3-[(trifluoroacetyl)amino]propoxy}pyridin-3-yl)-5-{[5-(trifluoro-methyl)pyrazin-2-yl]amino}-1,2-thiazole-4-carboxamide]
13 | > 20 µM | Cc1nsc(Nc2ccc(C#N)cn2)c1C(=O)Nc1ccc(OC[C@H]2CCN(CC(F)(F)F)C2)nc1 [Example 405, 5-[(5-Cyanopyridin-2-yl)amino]-3-methyl-N-(6-{[(35)-1-(2,2,2-trifluoroethyl)pyrrolidin-3-yl]methoxy}pyridin-3-yl)-1,2-thiazole-4-carboxamide]
14 | ≥ 20 µM | Cc1nsc(Nc2ccc(C#N)cn2)c1C(=O)Nc1ccc(OC2CCCN(C(=O)OC(C)(C)C)C2)nc1 (centres unmarked) [Example 36, tert-Butyl 3-({5-[({5-[(5-cyanopyridin-2-yl)amino]-3-methyl-1,2-thiazol-4-yl}-carbonyl)amino]pyridin-2-yl}oxy)piperidine-1-carboxylate]
15 | > 20 µM | Cc1nsc(Nc2cncc(C(F)(F)F)n2)c1C(=O)Nc1ccc(OCCN(C)C(=O)OC(C)(C)C)nc1 [Example 430, tert-Butyl methyl{2-[(5-{[(3-methyl-5-{[6-(trifluoromethyl)pyrazin-2-yl]amino}-1,2-thiazol-4-yl)carbonyl]amino}pyridin-2-yl)oxy]ethyl}carbannate]
16 | ≥ 20 µM | Cc1nsc(Nc2nc3c(C(F)(F)F)cccc3s2)c1C(=O)Nc1ccc(OCCO)c(F)c1 [Example 4, N-[3-Fluoro-4-(2-hydroxyethoxy)phenyl]-3-methyl-5-{[4-(trifluoromethyl)-1,3-benzothiazol-2-yl]amino}-1,2-thiazole-4-carboxamide]
17 | > 20 µM and 19 µM | Cc1nsc(Nc2cnc3ccccc3n2)c1C(=O)Nc1ccc(NCCN(C)C(=O)OC(C)(C)C)nc1 [Example 434, tert-Butyl methyl(2-{[5-({[3-methyl-5-(quinoxalin-2-ylamino)-1,2-thiazol-4-yl]carbonyl}amino)pyridin-2-yl]amino}ethyl)carbamate]
18 | ≥ 20 µM | Cc1nsc(Nc2cnccn2)c1C(=O)Nc1ccc(OC2CCCN(C(=O)OC(C)(C)C)C2)nc1 (centres unmarked) [Example 41, tert-Butyl 3-{[5-({[3-methyl-5-(pyrazin-2-ylamino)-1,2-thiazol-4-yl]carbonyl}amino)-pyridin-2-yl]oxy}piperidine-1-carboxylate]
19 | > 20 µM | Cc1nsc(Nc2cnc(C(F)(F)F)cn2)c1C(=O)Nc1ccc(F)c(OCC2CCN(CC(F)(F)F)C2)c1 (centres unmarked) [Example 318, N-(4-fluoro-3-{[1-(2,2,2-trifluoroethyl)pyrrolidin-3-yl]methoxy}phenyl)-3-methyl-5-{[5-(trifluoromethyl)pyrazin-2-yl]amino}-1,2-thiazole-4-carboxamide]
20 | > 20 µM | Cc1nsc(Nc2cnc(C(F)(F)F)cn2)c1C(=O)Nc1ccc(OCCN2CCC(F)(F)CC2)nc1 [Example 407, N-{6-[2-(4,4-Difluoropiperidin-1-yl)ethoxy]pyridin-3-yl}-3-methyl-5-{[5-(trifluoromethyl)pyrazin-2-yl]amino}-1,2-thiazole-4-carboxamide]
21 | ≥ 20 µM | Cc1nsc(Nc2cnccn2)c1C(=O)Nc1ccc(OCCCNC(=O)OC(C)(C)C)nc1 [Example 47, tert-Butyl (3-{[5-({[3-methyl-5-(pyrazin-2-ylamino)-1,2-thiazol-4-yl]carbonyl}-amino)pyridin-2-yl]oxy}propyl)carbamate]
22 | > 20 µM | CCN1CCC(Oc2ccc(NC(=O)c3c(C)nsc3Nc3cnc(C(F)(F)F)cn3)cn2)C(F)(F)C1 (centres unmarked) [Example 406, N-{6-[(1-Ethyl-3,3-difluoropiperidin-4-yl)oxy]pyridin-3-yl}-3-methyl-5-{[5-(trifluoromethyl)pyrazin-2-yl]amino}-1,2-thiazole-4-carboxamide]
23 | ≥ 20 µM | Cc1nsc(Nc2cnc(C(F)(F)F)cn2)c1C(=O)Nc1ccc(OC2CCN(C(=O)OC(C)(C)C)CC2)nc1 [Example 5, tert-Butyl 4-[(5-{[(3-methyl-5-{[5-(trifluoromethyl)pyrazin-2-yl]amino}-1,2-thiazol-4-yl)carbonyl]amino}pyridin-2-yl)oxy]piperidine-1-carboxylate]
24 | > 20 µM | CCN1CC[C@H](Oc2ccc(NC(=O)c3c(C)nsc3Nc3cnc(C(F)(F)F)cn3)cn2)[C@H](F)C1 [Example 424, N-(6-{[(3R,4S)-1-Ethyl-3-fluoropiperidin-4-yl]oxy}pyridin-3-yl)-3-methyl-5-{[5-(trifluoromethyl)pyrazin-2-yl]amino}-1,2-thiazole-4-carboxamide]
25 | 2.5 µM | COC(=O)c1cccc(NC(=O)c2c(C)nsc2Nc2cnc3ccccc3n2)c1 [Example 50, Methyl 3-({[3-methyl-5-(quinoxalin-2-ylamino)-1,2-thiazol-4-yl]carbonyl}amino)-benzoate]
26 | > 20 µM | Cc1nsc(Nc2cnc(C(F)(F)F)cn2)c1C(=O)Nc1ccc(OC2CCNCC2)c(F)c1 [Example 431, N-[3-Fluoro-4-(piperidin-4-yloxy)phenyl]-3-methyl-5-{[5-(trifluoromethyl)pyrazin-2-yl]amino}-1,2-thiazole-4-carboxamide]
